# In ChEMBL document CHEMBL1129879, “Enzymatic synthesis of peptidyl amino alcohols and peptidyl amino aldehydes-serine proteinase inhibitors” (Bioorg Med Chem Lett, 1997):
# Where a SMILES comes first, the peptide text is derived from it. The star is where a group is joined. Cbz = O=C(OCc1ccccc1)*
# Legend:
# [1] = The compound was tested for the inhibition of subtilisin 72, activity expressed as Ki; parameters: species or system Bacillus subtilis
# [2] = The compound was tested for the inhibition of subtilisin 72, activity expressed as IC50; parameters: species or system Bacillus subtilis
Ki [1],IC50 [2],Compound
0.18 µM,0.9 µM,C[C@H](NC(=O)OCc1ccccc1)C(=O)N[C@@H](C)C(=O)N[C@H](C=O)Cc1ccccc1 (Cbz-Ala-Ala-Phe-aldehyde)
1000 µM,–,C[C@H](NC(=O)OCc1ccccc1)C(=O)N[C@@H](C)C(=O)N[C@H](CO)Cc1ccccc1 (HELM PEPTIDE1{[O=C(OCc1ccccc1)[*:2]].A.A.[OC[C@H](Cc1ccccc1)N[*:1]]}$$$$V2.0)
